Assay results taken from patent US20230159496A1, “COMPOUNDS AND METHODS FOR MODULATING SPLICING” (REMIX THERAPEUTICS INC., priority 2020, published 2023).
Like-named read-outs stand apart in the source and are kept apart here.

Assays:
Type in all cases: cell-based
HTT mRNA = test: Splicing assay (RT-qPCR) monitoring HTT canonical junction (CJ) and alternative junction (AJ) mRNA isoforms; conditions: A673 or K562 cells, 24 h treatment, top dose 10 uM
Outline: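 A673 or K562 cells treated 24 h at 37 °C with an 11-point 3-fold dilution (top 10 uM final, DMSO ≤0.25%). Lysates assayed by one-step RT-qPCR for HTT CJ and AJ isoforms, normalized to GAPDH, GUSB (K562) or PPIA (A673).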

Target C CJ mRNA = test: Gene panel canonical junction qPCR assay, Target C; conditions: decrease in CJ mRNA levels, gene panel; read-out: Target C IC50
Outline: (§1)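 A673 or K562 cells were treated for 24 h at 37 °C with an 11-point 3-fold dilution, top dose 10 uM, DMSO ≤0.25%. Canonical junction mRNA in lysates was quantified by one-step RT-qPCR and normalized to GAPDH, GUSB or PPIA.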

SMN2 CJ mRNA = test: Gene panel canonical junction qPCR assay, SMN2; conditions: decrease in CJ mRNA levels, gene panel; read-out: SMN2 IC50
Outline: as §1

HTT CJ mRNA = test: Gene panel canonical junction qPCR assay, HTT; conditions: decrease in CJ mRNA levels, gene panel; read-out: HTT IC50
Outline: as §1

[1] = decrease in CJ mRNA (50% response), read-out: HTT CJ AC50
[2] = increase in AJ mRNA (50% response), read-out: HTT AJ AC50

Row | SMILES | IC50 (Target C CJ mRNA) [nM] | IC50 (SMN2 CJ mRNA) [nM] | IC50 (HTT CJ mRNA) [nM] | AC50 (HTT mRNA; [1]) [nM] | AC50 (HTT mRNA; [2]) [nM]
1 | Cc1cn2cc(-c3ccc4c(=O)n(C5CCNCC5)cnc4c3)c(C)cc2n1 [Compound 244] | > 10000 | 100 to 1000 | > 10000 | > 10000 | > 10000
2 | Cc1cn2cc(-c3ccc4c(c3)CCN(C3CCNCC3)C4=O)cc(F)c2n1 [Compound 247, 6-[8-fluoro-2-methylimidazo[1,2-a]pyridin-6-yl]-2-(piperidin-4-yl)-3,4-dihydroisoquinolin-1-one] | 1000 to 10000 | < 100 | 1000 to 10000 | 1000 to 10000 | 1000 to 10000
3 | Cc1cn2cc(-c3ccc4c(=O)n(C5CCNCC5)ncc4c3)cc(F)c2n1 [Compound 248, 6-[8-fluoro-2-methylimidazo[1,2-a]pyridin-6-yl]-2-(piperidin-4-yl)phthalazin-1-one] | 100 to 1000 | < 100 | < 100 | < 100 | 100 to 1000
4 | Cn1cc2cc(-c3ccc4c(=O)n(C5CCNCC5)ncc4c3)cc(F)c2n1 [Compound 249] | 1000 to 10000 | 1000 to 10000 | 1000 to 10000 | 1000 to 10000 | 1000 to 10000
5 | Cc1cc(-c2ccc3c(=O)n(C4CCNCC4)ncc3c2)cc2cn(C)nc12 [Compound 251] | 100 to 1000 | < 100 | 100 to 1000 | 100 to 1000 | 100 to 1000
6 | Cc1cn2cc(-c3ccc4c(c3)CCN(C3CCNCC3)C4=O)cc(C(F)(F)F)c2n1 [Compound 252, 6-[2-methyl-8-(trifluoromethyl)imidazo[1,2-a]pyridin-6-yl]-2-(piperidin-4-yl)-3,4-dihydroisoquinolin-1-one] | > 10000 | 100 to 1000 | > 10000 | > 10000 | > 10000
7 | Cc1cn2cc(-c3ccc4c(=O)n(C5CCNCC5)ncc4c3)c(C)cc2n1 [Compound 254] | 1000 to 10000 | 1000 to 10000 | 1000 to 10000 | 1000 to 10000 | 1000 to 10000
8 | Cc1cn2cc(-c3ccc4c(=O)n(C5CCNCC5)ncc4c3)ncc2n1 [Compound 255] | > 10000 | 100 to 1000 | 1000 to 10000 | 1000 to 10000 | 1000 to 10000
9 | Cc1cn2cc(-c3ccc4c(=O)n(C5CCNCC5)ncc4c3)cc(Cl)c2n1 [Compound 256] | > 10000 | < 100 | 100 to 1000 | 100 to 1000 | 100 to 1000
10 | Cc1cn2cc(-c3ccc4c(=O)n(C5CCNCC5)ncc4c3)cc(C)c2n1 [Compound 257] | 1000 to 10000 | < 100 | 100 to 1000 | 100 to 1000 | 100 to 1000

Continued, in another order:

Row | IC50 (Target C CJ mRNA) [nM] | IC50 (SMN2 CJ mRNA) [nM] | IC50 (HTT CJ mRNA) [nM] | SMILES | AC50 (HTT mRNA; [1]) [nM] | AC50 (HTT mRNA; [2]) [nM]
11 | < 100 | < 100 | < 100 | Cc1cn2nc(-c3cc(F)c4c(=O)n(C5CCNCC5)cnc4c3)cc(C)c2n1 [Compound 243, 7-(2,8-dimethylimidazo[1,2-b]pyridazin-6-yl)-5-fluoro-3-(piperidin-4-yl)quinazolin-4(3H)-one] | < 100 | < 100
12 | 100 to 1000 | < 100 | 100 to 1000 | Cc1nc2c(F)cc(-c3ccc4c(=O)n(C5CCNCC5)cnc4c3)cc2o1 [Compound 245] | 100 to 1000 | 100 to 1000
13 | 1000 to 10000 | 1000 to 10000 | 1000 to 10000 | Cc1cn2cc(-c3ccc4c(=O)n(C5CCN(C)CC5)cnc4c3)c(C)cc2n1 [Compound 246] | 1000 to 10000 | 1000 to 10000
14 | 100 to 1000 | < 100 | < 100 | Cc1nc2c(F)cc(-c3ccc4c(=O)n(C5CCNCC5)ncc4c3)cc2o1 [Compound 250] | < 100 | < 100
15 | 1000 to 10000 | 100 to 1000 | 1000 to 10000 | Cc1nc2c(F)cc(-c3ccc4c(=O)n(C5CCNCC5)ncc4c3)cc2s1 [Compound 253] | 1000 to 10000 | 1000 to 10000
16 | 100 to 1000 | 100 to 1000 | 100 to 1000 | Cc1cn2nc(-c3ccc4c(=O)n(C5CCNCC5)ncc4c3)nc2c(C)n1 [Compound 259] | 100 to 1000 | 100 to 1000
